Legend:
Format in all cases: in vivo
[1] = tested on: acute monophasic rat EAE model; test: combination efficacy experiment, acute monophasic rat EAE model: clinical scores; conditions: for efficacy on the clinical course of EAE (average clinical score, FIG. 1): each compound alone, ponesimod 30 mg/kg q.d., teriflunomide 1 mg/kg q.d., from day 0, 21 days study; for severity of the disease (maximal clinical score reached over the 21 days study, FIG. 2): ponesimod 30 mg/kg q.d. and/or teriflunomide 1 mg/kg q.d. from day 0
Method: Female Lewis rats are immunized with an emulsion of myelin basic protein (MBP) from Guinea pig in complete Freund's adjuvant. A total of 200 micrograms of MBP is injected per rat at two sites subcutaneously (right paw and base of tail). Within 10 days the rats develop signs of paralysis which will be graded on a scale from 0 to 15 assessing the tail and each limb individually according to the method originally described by Weaver A. et al., FASEB J., 2005, 19(12): 1668-1670. The disease takes an acute monophasic course and is self-remitting. Usually by day 21 clinical scores reach values below 3.0.
(§1) Groups of 10 rats are dosed orally starting at the day of disease induction (day 0) with different doses of teriflunomide in the range between 1 and 10 mg/kg once daily (q.d.) or with 30 mg/kg ponesimod q.d. Clinical scores are assessed on a daily basis and disease development is compared between vehicle-treated rats and rats receiving teriflunomide or ponesimod (vehicle: 0.5% Methylcellulose/0.5% Tween® 80/water). In parallel, body weights of the rats are monitored on a daily basis to follow general health. Hematology parameters, including lymphocyte counts, are measured at 3 different time points: 6 and 24 hours after the oral gavage at day 20 and at the termination of the experiment at day 21, 3 hours post dosing. Plasma samples can be taken for compound concentration determination and for the measurement of protein markers.
The combination efficacy experiment is performed in the same rat EAE model as described for the first pilot experiment. It consists of four treatment groups: • 1. Vehicle (0.5% Methylcellulose/0.5% Tween® 80/water) q.d., from day 0 • 2. Teriflunomide (1 mg/kg) q.d., from day 0 • 3. Ponesimod (30 mg/kg) q.d., from day 0 • 4. Teriflunomide (1 mg/kg) q.d., from day 0+ponesimod (30 mg/kg) q.d., from day 0
In life and termination endpoints are the same as described for the first pilot experiment.
Data collected in the pilot experiment are similar to those obtained in the combination study and therefore are used to increase the monotherapy groups size in order to increase sensitivity as described by Bate S. et al., PLoS One., 2014, 9(12): e114872. […] When combined, the two compounds benefit from each other.

lymphocytes = test: first pilot experiment, rat EAE model: hematology, lymphocyte counts; conditions: ponesimod 30 mg/kg oral q.d.; over 24 hours
Method: as §1, with “markers. Based on the first pilot experiment described above one dose of teriflunomide is selected for the combination efficacy experiment.” for “markers.”

[2] = combination efficacy experiment, acute monophasic rat EAE model: body weight; conditions: ponesimod 30 mg/kg q.d. from day 0; over the 21 days study
Method: as §1, with “markers. The combination efficacy experiment is performed in the same rat EAE model as described for the first pilot experiment. It consists of four treatment groups: • 1. Vehicle (0.5% Methylcellulose/0.5% Tween® 80/water) q.d., from day 0 • 2. Teriflunomide (1 mg/kg) q.d., from day 0 • 3. Ponesimod (30 mg/kg) q.d., from day 0 • 4. Teriflunomide (1 mg/kg) q.d., from day 0+ponesimod (30 mg/kg) q.d., from day 0 In life and termination endpoints are the same as described for the first pilot experiment. […]” for “markers.”

[3] = tested on: acute monophasic models of experimental autoimmune encephalomyelitis (EAE); test: first pilot experiment, acute monophasic rat EAE model: clinical scores; conditions: female Lewis rats, teriflunomide 1 mg/kg oral q.d. from day 0
Method: The efficacy of teriflunomide and ponesimod in acute monophasic models of experimental autoimmune encephalomyelitis (EAE) can be determined in a pilot experiment. Female Lewis rats are immunized with an emulsion of myelin basic protein (MBP) from Guinea pig in complete Freund's adjuvant. A total of 200 micrograms of MBP is injected per rat at two sites subcutaneously (right paw and base of tail). Within 10 days the rats develop signs of paralysis which will be graded on a scale from 0 to 15 assessing the tail and each limb individually according to the method originally described by Weaver A. et al., FASEB J., 2005, 19(12): 1668-1670. The disease takes an acute monophasic course and is self-remitting. Usually by day 21 clinical scores reach values below 3.0. Groups of 10 rats are dosed orally starting at the day of disease induction (day 0) with different doses of teriflunomide in the range between 1 and 10 mg/kg once daily (q.d.) or with 30 mg/kg ponesimod q.d. Clinical scores are assessed on a daily basis and disease development is compared between vehicle-treated rats and rats receiving teriflunomide or ponesimod (vehicle: 0.5% Methylcellulose/0.5% Tween® 80/water). In parallel, body weights of the rats are monitored on a daily basis to follow general health. Hematology parameters, including lymphocyte counts, are measured at 3 different time points: 6 and 24 hours after the oral gavage at day 20 and at the termination of the experiment at day 21, 3 hours post dosing. Plasma samples can be taken for compound concentration determination and for the measurement of protein markers. Based on the first pilot experiment described above one dose of teriflunomide is selected for the combination efficacy experiment.

[4] = teriflunomide alone 1 mg/kg q.d. from day 0

SMILES: CCC/N=C1\S/C(=C\c2ccc(OC[C@H](O)CO)c(Cl)c2)C(=O)N1c1ccccc1C [ponesimod, (R)-5-[3-chloro-4-(2,3-dihydroxy-propoxy)-benz[Z]ylidene]-2-([Z]-propylimino)-3-o-tolyl-thiazolidin-4-one]
- efficacy on the clinical course of EAE (average clinical score, FIG. 1) [1]: moderate efficacy
- severity of the disease (maximal clinical score reached over the 21 days study, FIG. 2) [1]: no effect
- effect on clinical score during the ascending phase (FIG. 1) ([1]; ponesimod 30 mg/kg q.d. from day 0): moderate effect
- reduction of lymphocytes (lymphocytes): partial reduction of lymphocytes
- body weight loss (FIG. 3 and FIG. 4) [2]: reduction in body weight loss

SMILES: C/C(O)=C(\C#N)C(=O)Nc1ccc(C(F)(F)F)cc1 [teriflunomide, (Z)-2-cyano-3-hydroxy-but-2-enoic acid-(4-trifluoromethylphenyl)-amide]
- disease onset [3]: strong delay of disease onset
- efficacy on EAE scores [3]: partial efficacy
- severity of the disease [3]: without affecting the severity of the disease
- efficacy on the clinical course of EAE (average clinical score, FIG. 1) [1]: moderate efficacy
- severity of the disease (maximal clinical score reached over the 21 days study, FIG. 2) [1]: no effect
- disease onset (FIG. 1) [1, 4]: strong delay of disease onset
- efficacy on EAE scores (FIG. 1 and FIG. 2) [1, 4]: partial efficacy

— patent US12527772B2, “Pharmaceutical combination comprising ponesimod” (Vanda Pharmaceuticals Inc., priority 2017, dated 2026)
